# Experimental data reported in patent US20080207643A1, “Composition for Treating Hyperlipaemia” (priority 2004, published 2008).
# Tests used:
# [1] = system: normal rats; experiment: Effects on the blood lipid level in the normal rats; assay type: in vivo, Wistar rats; conditions: gavage 4 days
# Procedure: Wistar rats, bred by the Medical Experimental Animal Centre of Chinese Academy of Military Medical Sciences, certificate No. […] By calculating in accordance with the principle of dosage equivalent per body surface area, the above mentioned generally used dosage for human was converted into the dosage for rats of about 50 mg/kg/day. […] By calculating in accordance with the principle of dosage equivalent per body surface area, the above mentioned generally used dosage for human was converted into the dosage for rats of about 0.85 mg/kg/day.
# [2] = cited from earlier work
# [3] = system: hyperlipemia model rats; experiment: Effects on the activity of seroenzyme (alanine transaminase, creatine kinase) in the model rats; conditions: for Alanine transaminase / Creatine kinase: serum of model rats, gavage 14 days
# Procedure: Hyperlipemia rat model was established by inducing hyperlipemia with high lipid containing feed. The formulation of high lipid containing feed was as follows: basic feed 86.3%, cholesterol 3%, lard 10%, methylthiouracil 0.2% and porcine bile salt 0.5%, and were allowed to be mixed uniformly. The rats were continuously fed for 2 weeks. During the administration of drugs, high lipid containing feed was administered every other day.
# The serum bio-chemical index includes total cholesterol (TC), alanine transaminase (ALT), creatine kinase (CK), triglyceride (TG), low density lipoprotein-cholesterol (LDL-C), high density lipoprotein-cholesterol (LDL-C). The reagents for measuring alanine transaminase (ALT) and creatine kinase (CK) were produced by Beijing Zhongsheng High-Tech Bioengineering Company, and SABA/18 Automatic Biochemical Analyzer was used for measurement. Other reagents were produced by Roche Inc., Japan, and Hitachi 7020 Automatic Biochemical Analyzer was used for measurement. The measuring methods are based on the specifications of the reagents, and the rats were fasted for 16 hours before collecting blood.
# The administering route intended for the clinical application is oral administration, and thus gavage administration was used in the present experiment for continuous 14 days. Gavage administration was conducted on the rats after feeding, once per day. The dosing volume is 0.3 ml/100 g of body weight.
# [4] = system: hyperlipemia rat model; experiment: Comparison of the different formulations of acipimox in combination with atorvastatin calcium on hyperlipemia of rats; assay type: in vivo, Wistar rats; conditions: comparison test, gavage 14 days
# Source text: The level of serum total cholesterol level was respectively measured before grouping, and then randomly grouping by following the balance principle. Each group included 10 rats.
# [5] = system: hyperlipemia rat model; experiment: Effects on the blood lipid level in hyperlipemia model rats (high lipid containing feed); assay type: in vivo, Wistar rats; conditions: gavage 14 days
# Source text: Each group included 10 rats. […] The measurement is the same as the experiment conducted on normal rats as described in section 5.4.
# [6] = system: hyperlipemia patients; conditions: 80 mg/d, 22 hyperlipemia patients; cited from earlier work
smiles,measurement,setting,value
"Cc1cnc(C(=O)O)c[n+]1[O-] [Acipimox, acipimox]",High density lipoprotein-cholesterol,[1]; acipimox 100 mg/kg,0.97 ± 0.16 mmol/L
same,Low density lipoprotein-cholesterol,[1]; acipimox 100 mg/kg,0.32 ± 0.12 mmol/L
same,Total cholesterol in serum,[1]; acipimox 100 mg/kg,1.60 ± 0.35 mmol/L
same,Triglyceride in serum,[1]; acipimox 100 mg/kg,0.71 ± 0.27 mmol/L
same,High density lipoprotein-cholesterol,[1]; acipimox 200 mg/kg,0.98 ± 0.23 mmol/L
same,Low density lipoprotein-cholesterol,[1]; acipimox 200 mg/kg,0.26 ± 0.11 mmol/L
same,Total cholesterol in serum,[1]; acipimox 200 mg/kg,1.55 ± 0.28 mmol/L
same,Triglyceride in serum,[1]; acipimox 200 mg/kg,0.69 ± 0.33 mmol/L
same,High density lipoprotein-cholesterol,[1]; acipimox 300 mg/kg,1.15 ± 0.26 mmol/L
same,Low density lipoprotein-cholesterol,[1]; acipimox 300 mg/kg,0.29 ± 0.11 mmol/L
same,Total cholesterol in serum,[1]; acipimox 300 mg/kg,1.51 ± 0.26 mmol/L
same,Triglyceride in serum,[1]; acipimox 300 mg/kg,0.63 ± 0.28 mmol/L
same,High density lipoprotein-cholesterol,[1]; acipimox 400 mg/kg,1.18 ± 0.13 mmol/L
same,Low density lipoprotein-cholesterol,[1]; acipimox 400 mg/kg,0.24 ± 0.14 mmol/L
same,Total cholesterol in serum,[1]; acipimox 400 mg/kg,1.49 ± 0.28 mmol/L
same,Triglyceride in serum,[1]; acipimox 400 mg/kg,0.57 ± 0.36 mmol/L
same,combination with plasma protein,[2]; in vivo,does not combine with plasma protein
same,excretion and metabolism,[2]; in vivo,"excreted mainly in the form of Acipimox itself, without being metabolized"
same,half life,[2]; oral administration,2 h
same,time to the peak of plasma concentration after administration,[2]; oral administration,≤ 2 h
same,levels of alanine transaminase and creatine kinase in serum in comparison with the model control group,"[3]; model rats, 14 days, acipimox 100 to 400 mg/kg, P>0.05",not remarkably different
same,Alanine transaminase,[3]; acipimox 100 mg/kg,640.3 ± 117.6 nmol/s/L
same,Creatine kinase,[3]; acipimox 100 mg/kg,361.4 ± 106.4 U/L
same,Alanine transaminase,[3]; acipimox 200 mg/kg,645.4 ± 124.9 nmol/s/L
same,Creatine kinase,[3]; acipimox 200 mg/kg,354.4 ± 110.9 U/L
same,Alanine transaminase,[3]; acipimox 300 mg/kg,655.5 ± 110.5 nmol/s/L
same,Creatine kinase,[3]; acipimox 300 mg/kg,380.33 ± 120.1 U/L
same,Alanine transaminase,[3]; acipimox 400 mg/kg,642.8 ± 114.2 nmol/s/L
same,Creatine kinase,[3]; acipimox 400 mg/kg,377.3 ± 103.4 U/L
same,High density lipoprotein-cholesterol,[4]; acipimox 200 mg/kg,4.20 ± 1.10 mmol/L
same,Low density lipoprotein-cholesterol,[4]; acipimox 200 mg/kg,7.27 ± 1.83 mmol/L
same,Total cholesterol in serum,[4]; acipimox 200 mg/kg,10.31 ± 1.67 mmol/L
same,Triglyceride in serum,[4]; acipimox 200 mg/kg,1.79 ± 0.63 mmol/L
same,High density lipoprotein-cholesterol,[4]; acipimox 300 mg/kg,4.54 ± 0.52 mmol/L
same,Low density lipoprotein-cholesterol,[4]; acipimox 300 mg/kg,6.96 ± 1.23 mmol/L
same,Total cholesterol in serum,[4]; acipimox 300 mg/kg,8.69 ± 1.88 mmol/L
same,Triglyceride in serum,[4]; acipimox 300 mg/kg,1.68 ± 0.56 mmol/L
same,High density lipoprotein-cholesterol,[5]; acipimox 100 mg/kg,3.95 ± 0.63 mmol/L
same,Low density lipoprotein-cholesterol,[5]; acipimox 100 mg/kg,8.44 ± 1.06 mmol/L
same,Total cholesterol in serum,[5]; acipimox 100 mg/kg,13.18 ± 2.31 mmol/L
same,Triglyceride in serum,[5]; acipimox 100 mg/kg,1.98 ± 0.42 mmol/L
same,High density lipoprotein-cholesterol,[5]; acipimox 200 mg/kg,4.35 ± 0.55 mmol/L
same,Low density lipoprotein-cholesterol,[5]; acipimox 200 mg/kg,8.23 ± 0.40 mmol/L
same,Total cholesterol in serum,[5]; acipimox 200 mg/kg,10.82 ± 3.05 mmol/L
same,Triglyceride in serum,[5]; acipimox 200 mg/kg,1.78 ± 0.55 mmol/L
same,High density lipoprotein-cholesterol,[5]; acipimox 300 mg/kg,4.56 ± 0.50 mmol/L
same,Low density lipoprotein-cholesterol,[5]; acipimox 300 mg/kg,7.79 ± 0.89 mmol/L
same,Total cholesterol in serum,[5]; acipimox 300 mg/kg,10.73 ± 2.36 mmol/L
same,Triglyceride in serum,[5]; acipimox 300 mg/kg,1.69 ± 0.51 mmol/L
same,High density lipoprotein-cholesterol,[5]; acipimox 400 mg/kg,4.70 ± 0.58 mmol/L
same,Low density lipoprotein-cholesterol,[5]; acipimox 400 mg/kg,7.65 ± 0.40 mmol/L
same,Total cholesterol in serum,[5]; acipimox 400 mg/kg,11.18 ± 2.47 mmol/L
same,Triglyceride in serum,[5]; acipimox 400 mg/kg,1.72 ± 0.54 mmol/L
"CC(C)c1c(C(=O)Nc2ccccc2)c(-c2ccccc2)c(-c2ccc(F)cc2)n1CC[C@@H](O)C[C@@H](O)CC(=O)O [Atorvastatin calcium, calcium [R-(R′,R′)]2-(4-fluorophenyl)-βδ-dihydroxyl-5-(1-methylethyl)-3-phenyl-4-[aniline]carbonyl]-1-hydro-pyrrolyl-1-heptanoate trihydrate]",Total cholesterol in serum,[1]; atorvastatin calcium 5 mg/kg,1.64 ± 0.30 mmol/L
same,Triglyceride in serum,[1]; atorvastatin calcium 5 mg/kg,0.67 ± 0.28 mmol/L
same,Total cholesterol in serum,[1]; atorvastatin calcium 10 mg/kg,1.52 ± 0.31 mmol/L
same,Triglyceride in serum,[1]; atorvastatin calcium 10 mg/kg,0.65 ± 0.33 mmol/L
same,Total cholesterol in serum,[1]; atorvastatin calcium 20 mg/kg,1.46 ± 0.24 mmol/L
same,Triglyceride in serum,[1]; atorvastatin calcium 20 mg/kg,0.55 ± 0.16 mmol/L
same,Total cholesterol in serum,[1]; atorvastatin calcium 30 mg/kg,1.41 ± 0.29 mmol/L
same,Triglyceride in serum,[1]; atorvastatin calcium 30 mg/kg,0.51 ± 0.18 mmol/L
same,Total cholesterol in serum,[4]; atorvastatin calcium 10 mg/kg,10.20 ± 1.62 mmol/L
same,Triglyceride in serum,[4]; atorvastatin calcium 10 mg/kg,1.56 ± 0.62 mmol/L
same,Total cholesterol in serum,[4]; atorvastatin calcium 20 mg/kg,9.65 ± 2.22 mmol/L
same,Triglyceride in serum,[4]; atorvastatin calcium 20 mg/kg,1.47 ± 0.56 mmol/L
same,decreases the activity of coagulation factor VII,[6],8%
same,decreases the coagulation rate of platelet induced by thromboxane A2 (TXA2),[6],11%
same,Total cholesterol in serum,[5]; atorvastatin calcium 5 mg/kg,12.45 ± 2.67 mmol/L
same,Triglyceride in serum,[5]; atorvastatin calcium 5 mg/kg,1.93 ± 0.52 mmol/L
same,Total cholesterol in serum,[5]; atorvastatin calcium 10 mg/kg,11.23 ± 2.12 mmol/L
same,Triglyceride in serum,[5]; atorvastatin calcium 10 mg/kg,1.80 ± 0.28 mmol/L
same,Total cholesterol in serum,[5]; atorvastatin calcium 20 mg/kg,10.27 ± 2.67 mmol/L
same,Triglyceride in serum,[5]; atorvastatin calcium 20 mg/kg,1.72 ± 0.47 mmol/L
same,Total cholesterol in serum,[5]; atorvastatin calcium 30 mg/kg,9.91 ± 2.65 mmol/L
same,Triglyceride in serum,[5]; atorvastatin calcium 30 mg/kg,1.78 ± 0.55 mmol/L
